Data on six compounds can be found in publication PMC8875489, “Pharmaceutical and Safety Profile Evaluation of Novel Selenocompounds with Noteworthy Anticancer Activity” (Pharmaceutics, 2022).

The first data set deals with Salmonella Typhimurium TA100 strain. The settings on record: 1 µM; TA100; alert ≥ 2.0. On the procedure: Safety profiles were evaluated using an in vitro microbiological method adapted to the microplate Ames test (384-well microtitration plate), which applies Salmonella enterica serovar Typhimurium bacterial strains (the gold standard in mutagenicity research). The experiment was performed according to a previously described protocol, which is provided in the Supplementary Materials. Briefly, the TA 100 strain (deprived of the ability to synthesize the histidine) was incubated with each tested compound in an exposure medium containing a limited amount of histidine. The reversion events were counted both manually and by means of a microplate reader. Each fold increase bigger than two times the baseline level (≥2.0-fold) was considered to indicate a mutagen alert. The experiments and data analyses were prepared according to the procedure that was previously described by Flückiger-Isler et al.. The assay was performed in triplicate. The positive control selected for the mutagenicity assays was NQNO, which causes genome point mutations; specifically, it promotes G:C → A:T transitions in the Salmonella Typhimurium TA-100 strain and other bacteria such as Vibrio harveyi and Escherichia coli.
In the next step of the studies, the in vitro safety profiles of the tested selenocompounds were evaluated. All compounds were tested with the 384-well plate microfluctuation Ames test. The mutagenic index (MI) was used as the measure of mutagenicity.
1.5. Safety profile evaluation - Ames microplate mutagenicity assay
Safety profile was evaluated by the means of in vitro microbiological methods – adapted to microplate Ames test, which applies Salmonella enterica serovar Typhimurium bacterial strains (the gold standard in mutagenicity research).
1.5.1. Compounds preparation
To evaluate the impact of tested compounds and of references on Salmonella enterica serovar Typhimurium (onwards Salmonella Typhimurium) TA-100 strain growth by means of the Ames test, the compounds or the reference were dissolved in the pure DMSO, to obtain the corresponding 10 mM stock solutions. Working solutions for tested compounds (25 μM and 250 μM concentrations) were prepared before the assay in DMSO.
1.5.2. Microplate Ames mutagenicity assay protocol
Prior to the experiment, Salmonella Typhimurium was cultured overnight (NB-2 liq-uid medium in the presence of 25 μg/mL ampicillin). At the day of the experiment, fresh dilutions of the tested compounds (25 μM and 250 μM), reference compound (methylse-leninic acid) and standard mutagen (4-nitroquinoline-N-oxide at 2.5 μM and 12.5 μM) in DMSO were prepared. The positive control selected for the mutagenicity assays was NQNO, which causes point mutations at the genome. Specifically, it promotes G:C → A:T transitions in Salmonella Typhimurium TA-100 strain and in the other bacteria such as Vib-rio harveyi and Escherichia coli.
The mutagenic potential of the tested derivatives was evaluated by the incubation of the abovementioned bacteria (deprived of the ability to synthesize the histidine) with spe-cific concentrations of the tested compounds (for 90 min in the exposure medium), con-taining a limited amount of histidine (enough to provide approximately 2-3 cell divisions).
The occurrence of reversion events to histidine prototrophy was observed through the bacterial growth in the indicator medium without histidine after 48 h of incubation in temperature of 37° C [45]. The final compound and the mutagenic agent concentrations in each single well of a 384 well plate were 1 μM and 10 μM for the compounds; and 0.1 μM and 0.5 μM for the mutagen. Lastly, both a manual count and a microplate reader were used to obtain the results. The medium control baseline (MCB) was estimated as the mean number of revertants in the medium control plus one standard deviation. Each fold in-crease bigger than two times the baseline level ≥ 2.0 was considered as a mutagen alert.
On to `COC(=O)C[Se]C(=O)c1ccccc1` [EDA-53, methyl 2-(benzoylselanyl)acetate], for which the “Fold Increase over Baseline” value came to 1.10.
On the same count and under the same terms, as for `COC(=O)C[Se]C(=O)Cc1ccccc1` [EDA-56, methyl 2-((2-phenylacetyl)selanyl)acetate], the figure is 0.93.

The same data set, now with this note: 1 µM; TA100; mutagenic if MI ≥ 2.
As to `COC(=O)C[Se]C(=O)c1ccccc1` [EDA-53, methyl 2-(benzoylselanyl)acetate], the “MI (mutagenic index)” value came to 1.82.
Turning to `COC(=O)C[Se]C(=O)Cc1ccccc1` [EDA-56, methyl 2-((2-phenylacetyl)selanyl)acetate], the “MI (mutagenic index)” value was 1.46.

Staying with this data set, now noted: 1 µM; TA100; threshold ≥ 0.99.
For the compound `COC(=O)C[Se]C(=O)c1ccccc1` [EDA-53, methyl 2-(benzoylselanyl)acetate], the “B (binomial B value)” value was 1.00.
Same read-out and setting: as for `COC(=O)C[Se]C(=O)Cc1ccccc1` [EDA-56, methyl 2-((2-phenylacetyl)selanyl)acetate], the figure is 0.88.

The data set is the same for the next values; noted with them: 10 µM; TA100; alert ≥ 2.0.
On to `COC(=O)C[Se]C(=O)c1ccccc1` [EDA-53, methyl 2-(benzoylselanyl)acetate], for which the “Fold Increase over Baseline” value came to 1.04.
Still for that read-out and setting: as for `COC(=O)C[Se]C(=O)Cc1ccccc1` [EDA-56, methyl 2-((2-phenylacetyl)selanyl)acetate], the figure is 0.90.

Staying with this data set, now noted: 10 µM; TA100; mutagenic if MI ≥ 2.
On to `COC(=O)C[Se]C(=O)c1ccccc1` [EDA-53, methyl 2-(benzoylselanyl)acetate], for which the “MI (mutagenic index)” value is given as 1.72.
Same read-out and setting: the result for `COC(=O)C[Se]C(=O)Cc1ccccc1` [EDA-56, methyl 2-((2-phenylacetyl)selanyl)acetate] reads 0.85.

Staying with this data set, now noted: 10 µM; TA100; threshold ≥ 0.99.
With `COC(=O)C[Se]C(=O)c1ccccc1` [EDA-53, methyl 2-(benzoylselanyl)acetate], the “B (binomial B value)” value amounted to 0.98.
The same measure, in the same setting: the result for `COC(=O)C[Se]C(=O)Cc1ccccc1` [EDA-56, methyl 2-((2-phenylacetyl)selanyl)acetate] reads 0.75.

The data set is the same for the next values; noted with them: TA100, 1 and 10 µM.
As for `COC(=O)C[Se]C(=O)c1ccccc1` [EDA-53, methyl 2-(benzoylselanyl)acetate], the “mutagenicity conclusion in Ames test” value is “non-mutagenic”.

System in another data set: not given
Also noted: method as in PMID 28245633. The settings on record: known selenocompounds; cited from earlier work.
With `C[Se+](C)C` [cationic trimethylselenonium, trimethylselenonium], the permeability is 3.0%.
As to `O=[Se](O)O` [selenite], the permeability is 3.4%.
Regarding `C[Se]C[C@H](N)C(=O)O` [methylselenocysteine], the permeability is reported as 17.2%.
In the case of `N#C[SeH]` [anionic selenocyanate, selenocyanate], the permeability is 3.8%.
